What was measured:
SIK2 [1] = biological target: T1, SIK2 (Homo sapiens, UniProt Q9H0K1); assay: SIK2 Enzymatic Assay Version 1 (ADP Glo); format: biochemical
In short: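 Kinase activity read as ADP production by ADP-Glo luminescence, all steps at room temperature. Compound and SIK2 (0.6 nM, a 2× concentration) were preincubated 30 min; ATP-only wells lacking peptide were the negative control; depletion 40 min, detection ≥30 min.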

SIK2 [2] = biological target: T1, SIK2; assay: SIK2 Enzymatic Assay High Version 2 (High ATP); format: biochemical
In short: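 At room temperature, enzyme (6 nM, 2× final) was preincubated with compound for 30 min, then 6 mM ATP and 400 μM HDAC5tide (both 2× final) were added for 2 h. ADP formed was measured by ADP-Glo Max (2 h reagent, 1 h detection) using luminescence.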

[3] = enzyme 0.6 nM, 160 μM ATP and 140 μM HDAC5tide (each 2× final concentration), 30 minutes pre-incubation, 4 hours, ADPGlo luminescence, read-out: SIK2 ADP Glo IC50 (μM) (Test Example 1)

T1 sequence (Q9H0K1 whole entry, species assumed): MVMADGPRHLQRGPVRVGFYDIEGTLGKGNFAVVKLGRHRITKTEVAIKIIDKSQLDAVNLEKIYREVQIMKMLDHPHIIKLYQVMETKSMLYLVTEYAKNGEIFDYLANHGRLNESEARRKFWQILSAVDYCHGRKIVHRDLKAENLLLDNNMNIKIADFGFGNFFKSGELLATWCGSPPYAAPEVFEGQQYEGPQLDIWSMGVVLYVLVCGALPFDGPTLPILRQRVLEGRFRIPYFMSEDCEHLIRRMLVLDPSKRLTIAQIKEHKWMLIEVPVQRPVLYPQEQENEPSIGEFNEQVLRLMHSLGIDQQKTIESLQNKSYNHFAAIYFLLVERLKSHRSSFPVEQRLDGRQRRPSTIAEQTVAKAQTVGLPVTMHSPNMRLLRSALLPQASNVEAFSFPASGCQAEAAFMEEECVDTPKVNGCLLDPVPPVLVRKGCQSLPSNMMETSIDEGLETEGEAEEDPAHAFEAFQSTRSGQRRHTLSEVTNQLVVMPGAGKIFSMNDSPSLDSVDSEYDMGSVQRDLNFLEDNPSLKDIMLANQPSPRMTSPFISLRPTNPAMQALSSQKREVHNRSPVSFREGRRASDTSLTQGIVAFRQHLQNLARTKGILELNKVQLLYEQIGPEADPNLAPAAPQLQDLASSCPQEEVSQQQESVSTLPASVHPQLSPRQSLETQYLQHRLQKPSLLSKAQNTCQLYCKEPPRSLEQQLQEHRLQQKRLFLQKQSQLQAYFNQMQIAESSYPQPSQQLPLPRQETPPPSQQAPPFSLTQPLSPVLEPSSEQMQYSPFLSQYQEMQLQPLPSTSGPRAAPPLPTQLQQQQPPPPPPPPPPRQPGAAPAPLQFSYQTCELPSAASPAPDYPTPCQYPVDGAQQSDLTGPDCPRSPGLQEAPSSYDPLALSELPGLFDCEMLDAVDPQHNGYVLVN

SMILES	IC50 (SIK2 [1]; [3]) [µM]	IC50 (SIK2 [2]) [nM]	IC50 (SIK2 [1]) [µM]
CN1CC(COc2cnc(C#N)cc2-c2ccn3nc(NC(=O)C4CC4)cc3c2)C1 [Example 32, N-[5-[2-cyano-5-[(1-methylazetidin-3-yl)methoxy]-4-pyridyl]pyrazolo[1,5-a]pyridin-2-yl]cyclopropanecarboxamide]	0.0034	81.3	–
Cc1cc(-c2ccn3nc(Nc4cccnc4)cc3c2)c(O[C@H]2CC[C@H](O)CC2)cn1 [Example 290, (1r,4r)-4-((6-methyl-4-(2-(pyridin-3-ylamino)pyrazolo[1,5-a]pyridin-5-yl)pyridin-3-yl)oxy)cyclohexan-1-ol]	0.00439	83.1	–
CN1CCC(Oc2cnc(C#N)cc2-c2ccn3nc(NC(=O)C4CC4)cc3c2)C1 (single isomer, unassigned) [Example 58, (*R)—N-(5-(2-cyano-5-((1-methylpyrrolidin-3-yl)oxy)pyridin-4-yl)pyrazolo[1,5-a]pyridin-2-yl)cyclopropanecarboxamide]	0.00431	99.9	–
Cc1cc(-c2cn3cc(NC(=O)C4CC4)nc3cn2)c(OCC(C)(C)C#N)cn1 [Example 508, N-[6-[5-(2-cyano-2-methyl-propoxy)-2-methyl-4-pyridyl]imidazo[1,2-a]pyrazin-2-yl]cyclopropanecarboxamide]	0.00366	53.7	–
CN1CCC[C@@H](COc2cnc(C#N)cc2-c2ccn3nc(NC(=O)C4CC4)cc3c2)C1 [Example 37, (R)—N-(5-(2-cyano-5-((1-methylpiperidin-3-yl)methoxy)pyridin-4-yl)pyrazolo[1,5-a]pyridin-2-yl)cyclopropanecarboxamide]	0.00725	111	–
Cc1cc(-c2ccn3nc(Nc4cc(C)nc(C)n4)cc3c2)c(O[C@H]2CC[C@H](O)CC2)nn1 [Example 488, 4-[4-[2-[(2,6-dimethylpyrimidin-4-yl)amino]pyrazolo[1,5-a]pyridin-5-yl]-6-methyl-pyridazin-3-yl]oxycyclohexanol]	0.00294	116	–
N#Cc1cc(-c2ccn3nc(NC(=O)C4CC4)cc3c2)c(OCc2ccccc2)cn1 [Example 753, N-[5-(5-benzyloxy-2-cyano-4-pyridyl)pyrazolo[1,5-a]pyridin-2-yl]cyclopropanecarboxamide]	–	483	0.00298
C[C@H](O)COc1cnc(C#N)cc1-c1ccn2nc(NC(=O)C3CC3)cc2c1 [Example 63, N-[5-[2-cyano-5-[(2S)-2-hydroxypropoxy]-4-pyridyl]pyrazolo[1,5-a]pyridin-2-yl]cyclopropanecarboxamide]	0.00426	78.6	–
Cc1cc(-c2ccn3nc(Nc4cc(C)nc(C)n4)cc3c2)c(OCC(C)(C)O)nn1 [Example 600, 1-[4-[2-[(2,6-dimethylpyrimidin-4-yl)amino]pyrazolo[1,5-a]pyridin-5-yl]-6-methyl-pyridazin-3-yl]oxy-2-methyl-propan-2-ol]	0.0142	207	–
CN1[C@@H]2CC[C@H]1C[C@@H](COc1cnc(C#N)cc1-c1ccn3nc(NC(=O)C4CC4)cc3c1)C2 [Example 83, N-(5-(2-cyano-5-(((1R,3R,5S)-8-methyl-8-azabicyclo[3.2.1]octan-3-yl)methoxy)pyridin-4-yl)pyrazolo[1,5-a]pyridin-2-yl)cyclopropanecarboxamide]	0.00299	56.7	–
CN1CC[C@H](COc2cnc(C#N)cc2-c2ccn3nc(NC(=O)C4CC4)cc3c2)C1 [Example 16, (S)—N-(5-(2-cyano-5-((1-methylpyrrolidin-3-yl)methoxy)pyridin-4-yl)pyrazolo[1,5-a]pyridin-2-yl)cyclopropanecarboxamide]	0.00496	236	–
N#Cc1cc(-c2ccn3nc(NC(=O)C4CC4)cc3c2)c(OC[C@H]2CNCCO2)cn1 [Example 592, N-[5-[2-cyano-5-[[(2R)-morpholin-2-yl]methoxy]-4-pyridyl]pyrazolo[1,5-a]pyridin-2-yl]cyclopropanecarboxamide]	0.00486	120	–
CN1[C@@H]2CC[C@H]1C[C@H](COc1cnc(C#N)cc1-c1ccn3nc(NC(=O)C4CC4)cc3c1)C2 [Example 27, N-[5-[2-cyano-5-[[(1S,5R)-8-methyl-8-azabicyclo[3.2.1]octan-3-yl]methoxy]-4-pyridyl]pyrazolo[1,5-a]pyridin-2-yl]cyclopropanecarboxamide]	0.00474	98.7	–
Cc1cc(-c2ccn3nc(NC(=O)C4CC4)cc3c2)c(O[C@H]2C[C@H]3CC[C@@H](C2)N3C)cn1 [Example 138, N-(5-(2-methyl-5-(((1R,3r,5S)-8-methyl-8-azabicyclo[3.2.1]octan-3-yl)oxy)pyridin-4-yl)pyrazolo[1,5-a]pyridin-2-yl)cyclopropanecarboxamide]	0.000854	12.9	–

Second part, the molecule after the results:

IC50 (SIK2 [1]; [3]) [µM]	IC50 (SIK2 [2]) [nM]	IC50 (SIK2 [1]) [µM]	SMILES
0.00132	18.3	–	Cc1cc(-c2ccn3nc(NC(=O)C4CC4)cc3c2)c(O[C@H]2CC[C@H](O)CC2)cn1 [Example 158, trans-N-[5-[5-(4-hydroxycyclohexoxy)-2-methyl-4-pyridyl]pyrazolo[1,5-a]pyridin-2-yl]cyclopropanecarboxamide]
0.00116	24	–	Cc1cc(-c2ccn3nc(NC(=O)C4CC4)cc3c2)c(OCC2(N)CCC2)cn1 [Example 154, N-[5-[5-[(1-aminocyclobutyl)methoxy]-2-methyl-4-pyridyl]pyrazolo[1,5-a]pyridin-2-yl]cyclopropanecarboxamide]
0.000783	8.38	–	N#Cc1cc(-c2ccn3nc(NC(=O)C4CC4)cc3c2)c(OC[C@@H]2CNCCO2)cn1 [Example 19, N-[5-[2-cyano-5-[[(2S)-morpholin-2-yl]methoxy]-4-pyridyl]pyrazolo[1,5-a]pyridin-2-yl]cyclopropanecarboxamide]
0.000387	8.63	–	N#Cc1cc(-c2ccn3nc(NC(=O)C4CC4)cc3c2)c(O[C@H]2CC[C@H](O)CC2)cn1 [Example 64, N-[5-[2-cyano-5-(4-hydroxycyclohexoxy)-4-pyridyl]pyrazolo[1,5-a]pyridin-2-yl]cyclopropanecarboxamide]
0.000402	4.17	–	N#Cc1cc(-c2ccn3nc(NC(=O)C4CC4)cc3c2)c(O[C@@H]2C[C@@H]3C[C@H]2CN3)cn1 (single isomer, unassigned) [Example 17, N-[5-[5-[[(1*S,4*S,5*R)-2-azabicyclo[2.2.1]heptan-5-yl]oxy]-2-cyano-4-pyridyl]pyrazolo[1,5-a]pyridin-2-yl]cyclopropanecarboxamide]
0.000413	< 0.838	–	CC1(C)CNC[C@H](COc2ccc(C#N)cc2-c2ccn3nc(NC(=O)C4CC4)cc3c2)O1 [Example 102, N-[5-[5-cyano-2-[[(2R)-6,6-dimethylmorpholin-2-yl]methoxy]phenyl]pyrazolo[1,5-a]pyridin-2-yl]cyclopropanecarboxamide]
0.000912	16	–	N#Cc1cc(-c2ccn3nc(NC(=O)C4CC4)cc3c2)c(OC[C@@H](O)C(F)(F)F)cn1 [Example 96, N-[5-[2-cyano-5-[(2R)-3,3,3-trifluoro-2-hydroxy-propoxy]-4-pyridyl]pyrazolo[1,5-a]pyridin-2-yl]cyclopropanecarboxamide]
0.00055	2.85	–	N#Cc1cc(-c2ccn3nc(NC(=O)C4CC4)cc3c2)c(O[C@@H]2CCN(CC(F)(F)F)C2)cn1 [Example 110, (R)—N-[5-[2-cyano-5-[(3R)-1-(2,2,2-trifluoroethyl)pyrrolidin-3-yl]oxy-4-pyridyl]pyrazolo[1,5-a]pyridin-2-yl]cyclopropanecarboxamide]
0.0013	17.9	–	CN1CC[C@@H](COc2cnc(Cl)cc2-c2ccn3nc(NC(=O)C4CC4)cc3c2)C1 [Example 490, N-[5-[2-chloro-5-[[(3R)-1-methylpyrrolidin-3-yl]methoxy]-4-pyridyl]pyrazolo[1,5-a]pyridin-2-yl]cyclopropanecarboxamide]
0.00101	15.9	–	Cc1cc(-c2ccn3nc(NC(=O)C4CC4)cc3c2)c(OC[C@H]2CNCCO2)cn1 [Example 166, N-[5-[2-methyl-5-[[(2R)-morpholin-2-yl]methoxy]-4-pyridyl]pyrazolo[1,5-a]pyridin-2-yl]cyclopropanecarboxamide]
0.000664	12.6	–	Cc1cc(-c2ccn3nc(NC(=O)C4CC4)cc3c2)c(OC[C@@H]2CNCCO2)cn1 [Example 143, N-[5-[2-methyl-5-[[(2S)-morpholin-2-yl]methoxy]-4-pyridyl]pyrazolo[1,5-a]pyridin-2-yl]cyclopropanecarboxamide]
0.00205	27.1	–	CC(C)(C#N)COc1cnc(OC(F)F)cc1-c1ccn2nc(Nc3ccn4ncnc4c3)cc2c1 [Example 475, 3-[[6-(difluoromethoxy)-4-[2-([1,2,4]triazolo[1,5-a]pyridin-7-ylamino)pyrazolo[1,5-a]pyridin-5-yl]-3-pyridyl]oxy]-2,2-dimethyl-propanenitrile]
0.00109	11.6	–	Cc1cc(-c2ccn3nc(NC(=O)C4CC4)cc3c2)c(O[C@@H]2CNC[C@H](C(F)(F)F)C2)cn1 (single isomer, unassigned) [Example 445, N-[5-[2-methyl-5-[[(3*S,5*R)-5-(trifluoromethyl)-3-piperidyl]oxy]-4-pyridyl]pyrazolo[1,5-a]pyridin-2-yl]cyclopropanecarboxamide]
0.00122	10.2	–	N#Cc1cc(-c2ccn3nc(NC(=O)C4CC4)cc3c2)c(OC[C@@H]2CC[C@H](N)C2)cn1 [Example 20, N-[5-[5-[[(1R,3S)-3-aminocyclopentyl]methoxy]-2-cyano-4-pyridyl]pyrazolo[1,5-a]pyridin-2-yl]cyclopropanecarboxamide]

From US20240158392A1 (Janssen Biotech, Inc., priority 2021, published 2024)
